Experimental data taken from the supplement of paper PMC8988213.
Structures can show the parent of a compound that is named as a salt.

Experiments:
[1] = tested on: ID188 patient-derived PDAC 2D line (pre-FOLFIRINOX); assay: normalised area under dose-response curve (viability relative to DMSO, 7 doses up to 10 µM) (fraction (AUC)); higher = less sensitive (more viability retained); conditions: 72 h; top dose: 10 µM
Outline: (§1)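 2D PDAC cells grown out from patient-derived organoids were robotically seeded in 96-well plates at 1,500–3,000 cells/well and kept overnight at 37°C in 5% CO2. Compounds from a SelleckChem library were then applied for 72 h at seven concentrations, made as a 3-fold dilution series with 10 µM as the highest. CellTiter-Glo luminescence was measured 10 min later. Viability was normalised to control wells, and the GRmetrics R package was used to derive the area under the dose-response curve.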

[2] = tested on: ID211 patient-derived PDAC 2D line (post-FOLFIRINOX); assay: as above; conditions: 72 h; top dose: 10 µM
Outline: as §1

## CN1C(=O)[C@@]23C[C@]4([C@]56C[C@@]78SS[C@@](CO)(C(=O)N7[C@H]5Nc5ccccc56)N(C)C8=O)c5ccccc5N[C@@H]4N2C(=O)[C@]1(CO)SS3 [Chaetocin]
[1]
  normalised area under dose-response curve: 0.192
[2]
  normalised area under dose-response curve: 0.0212

## C[C@H](NC(=O)CCC(F)(F)F)C(=O)N[C@@H]1C(=O)N(CCO)c2ncccc2-c2ccccc21
[1]
  normalised area under dose-response curve: 0.939
[2]
  normalised area under dose-response curve: 0.744

## Cc1cc(Nc2cc(N)ncn2)c(=O)n2c1C(=O)NC21CCCCC1 [eFT-508 (eFT508)]
[1]
  normalised area under dose-response curve: 0.977
[2]
  normalised area under dose-response curve: 1.01

## O=C(NNc1nc2cc(F)ccc2n2cccc12)c1cnccn1 [SC144]
[1]
  normalised area under dose-response curve: 0.795
[2]
  normalised area under dose-response curve: 0.631

## Cc1cc2c(C(N)=O)cccc2n1-c1nc2c(c(NCc3ccccc3)n1)COCC2 [CB-5083]
[1]
  normalised area under dose-response curve: 1.01
[2]
  normalised area under dose-response curve: 0.643

## CCc1cncnc1N1CCN(Cc2nc3ccc(C(F)(F)F)cc3[nH]2)CC1
[1]
  normalised area under dose-response curve: 0.92
[2]
  normalised area under dose-response curve: 0.936

## O=C1C(=O)N(Cc2ccc(Cl)c(Cl)c2)c2ccccc21 [Apoptosis Activator 2]
[1]
  normalised area under dose-response curve: 0.952
[2]
  normalised area under dose-response curve: 0.969

## CC(C)(C)c1nc(-c2cccc(NS(=O)(=O)c3c(F)cccc3F)c2F)c(-c2ccnc(N)n2)s1
[1]
  normalised area under dose-response curve: 0.738
[2]
  normalised area under dose-response curve: 0.932

## O=c1cc(N2CCOCC2)oc2c1ccc1ccccc12 [NU7026]
[1]
  normalised area under dose-response curve: 0.998
[2]
  normalised area under dose-response curve: 0.846

## C=CC(=O)N1CCC[C@@H](n2nc(-c3ccc(Oc4ccccc4)cc3)c3c(N)ncnc32)C1
[1]
  normalised area under dose-response curve: 0.794
[2]
  normalised area under dose-response curve: 0.71

## O=C(c1cncc(Br)c1)N1CCC(N2CCCC2)CC1 [UNC669]
[1]
  normalised area under dose-response curve: 0.922
[2]
  normalised area under dose-response curve: 0.946

## CC(C)Oc1ccc(-c2c[nH]cc2CN(C)CCN)cc1 [MS023]
[1]
  normalised area under dose-response curve: 0.842
[2]
  normalised area under dose-response curve: 0.634

## Cc1c[nH]c2nc(Nc3ccc(N4CCN(C)CC4)c(F)c3)nc(-c3cccc(CC#N)c3)c12 [SGI-7079]
[1]
  normalised area under dose-response curve: 0.803
[2]
  normalised area under dose-response curve: 0.638

## Oc1cc(CNC(=S)/C=C/c2cc(O)c(O)c(Br)c2)cc(O)c1O [NT157]
[1]
  normalised area under dose-response curve: 0.943
[2]
  normalised area under dose-response curve: 0.886

## CC(=O)Nc1cccc(-n2c(=O)n(C3CC3)c(=O)c3c(Nc4ccc(I)cc4F)n(C)c(=O)c(C)c32)c1
[1]
  normalised area under dose-response curve: 0.553
[2]
  normalised area under dose-response curve: 0.197

## Nc1nccc(Oc2ccc(NC(=O)c3c[nH]cc(-c4ccc(F)cc4)c3=O)cc2F)c1Cl
[1]
  normalised area under dose-response curve: 0.939
[2]
  normalised area under dose-response curve: 0.911

## Cn1cc(C2=C(c3cn(CCCSC(=N)N)c4ccccc34)C(=O)NC2=O)c2ccccc21 [Bisindolylmaleimide IX (Ro 31-8220 Mesylate)]
[1]
  normalised area under dose-response curve: 0.942
[2]
  normalised area under dose-response curve: 0.788

## CCNC(=O)c1noc(-c2cc(C(C)C)c(O)cc2O)c1-c1ccc(CN2CCOCC2)cc1 [Luminespib (AUY-922, NVP-AUY922)]
[1]
  normalised area under dose-response curve: 0.485
[2]
  normalised area under dose-response curve: 0.345

## O=C(O)c1ccc2c(c1)nc(Nc1cccc(Cl)c1)c1ccncc12 [Silmitasertib (CX-4945)]
[1]
  normalised area under dose-response curve: 0.924
[2]
  normalised area under dose-response curve: 0.88

## O=C(O)Cc1cccc(OCCCN(Cc2cccc(C(F)(F)F)c2Cl)CC(c2ccccc2)c2ccccc2)c1 [GW3965 HCl]
[1]
  normalised area under dose-response curve: 0.923
[2]
  normalised area under dose-response curve: 0.825

## CN1c2ccccc2C(=O)Nc2cnc(Nc3ccc(N4CCC(O)CC4)cc3)nc21 [XMD16-5]
[1]
  normalised area under dose-response curve: 0.906
[2]
  normalised area under dose-response curve: 0.783

## N#CN=C(NCCCCCCOc1ccc(Cl)cc1)Nc1ccncc1 [GMX1778 (CHS828)]
[1]
  normalised area under dose-response curve: 0.283
[2]
  normalised area under dose-response curve: 0.296

## COc1cc([C@@H]2c3cc4c(cc3[C@@H](O[C@@H]3O[C@@H]5CO[C@@H](C)O[C@H]5[C@H](O)[C@H]3O)[C@H]3COC(=O)[C@H]23)OCO4)cc(OC)c1O [Etoposide]
[1]
  normalised area under dose-response curve: 0.946
[2]
  normalised area under dose-response curve: 0.853

## CC(C)(C)c1[nH]cnc1/C=c1\[nH]c(=O)/c(=C/c2ccccc2)[nH]c1=O [Plinabulin (NPI-2358)]
[1]
  normalised area under dose-response curve: 0.588
[2]
  normalised area under dose-response curve: 0.355

## FC(F)c1nc2ccccc2n1-c1nc(N2CCOCC2)nc(N2CCOCC2)n1 [ZSTK474]
[1]
  normalised area under dose-response curve: 0.712
[2]
  normalised area under dose-response curve: 0.642

## NC1(c2ccc(-c3nc4ccn5c(=O)[nH]nc5c4cc3-c3ccccc3)cc2)CCC1 [MK-2206 2HCl]
[1]
  normalised area under dose-response curve: 0.844
[2]
  normalised area under dose-response curve: 0.672

## NC(=O)c1ccc2nc(-c3ccc(Oc4ccc(Cl)cc4)cc3)[nH]c2c1 [Chk2 Inhibitor II (BML-277)]
[1]
  normalised area under dose-response curve: 0.967
[2]
  normalised area under dose-response curve: 0.865

## CN1CCN(c2ccc(-c3ccncc3-c3cc(F)c(O)c(F)c3)cc2)CC1 [LJH685]
[1]
  normalised area under dose-response curve: 0.943
[2]
  normalised area under dose-response curve: 0.83

## N#CSc1cc(SC#N)c(N)nc1N [PR-619]
[1]
  normalised area under dose-response curve: 0.921
[2]
  normalised area under dose-response curve: 0.875

## CC(C)n1c(/C=C/C(O)CC(O)CC(=O)O)c(-c2ccc(F)cc2)c2ccccc21 (configuration not stated) [Fluvastatin Sodium]
[1]
  normalised area under dose-response curve: 0.87
[2]
  normalised area under dose-response curve: 0.807

## CNC(=O)c1cc(Oc2ccc3nc(N[C@@H]4CCCC[C@H]4O)sc3c2)ccn1 [BLZ945]
[1]
  normalised area under dose-response curve: 0.905
[2]
  normalised area under dose-response curve: 0.914

## O=P1(N(CCCl)CCCl)NCCCO1 (configuration not stated) [Cyclophosphamide Monohydrate]
[1]
  normalised area under dose-response curve: 0.927
[2]
  normalised area under dose-response curve: 0.899

## CC(c1cc2ccccc2s1)N(O)C(N)=O (configuration not stated) [Zileuton]
[1]
  normalised area under dose-response curve: 0.817
[2]
  normalised area under dose-response curve: 0.859

## Nc1ncnc2n[nH]c(Nc3ccc(F)cc3)c12
[1]
  normalised area under dose-response curve: 0.947
[2]
  normalised area under dose-response curve: 0.864

## N[C@@H](Cc1ccc(N(CCCl)CCCl)cc1)C(=O)O [Melphalan]
[1]
  normalised area under dose-response curve: 0.87
[2]
  normalised area under dose-response curve: 0.853

## COC[C@H](NC(=O)c1cnc(C)s1)C(=O)N[C@@H](COC)C(=O)N[C@@H](Cc1ccccc1)C(=O)[C@@]1(C)CO1 [Oprozomib (ONX 0912)]
[1]
  normalised area under dose-response curve: 0.427
[2]
  normalised area under dose-response curve: 0.333

## Cn1cc(-c2ccc3c(c2)CCN3C(=O)Cc2cccc(C(F)(F)F)c2)c2c(N)ncnc21
[1]
  normalised area under dose-response curve: 0.915
[2]
  normalised area under dose-response curve: 0.852

## CCn1c(-c2nonc2N)nc2c(C#CC(C)(C)O)ncc(OC[C@H]3CCCNC3)c21
[1]
  normalised area under dose-response curve: 0.83
[2]
  normalised area under dose-response curve: 0.836

## CC(=O)c1cc([N+](=O)[O-])c(Sc2ccc(F)cc2F)s1
[1]
  normalised area under dose-response curve: 0.93
[2]
  normalised area under dose-response curve: 0.966

## CCC1=C[C@@H]2CN(C1)Cc1c([nH]c3ccccc13)[C@@](C(=O)OC)(c1cc3c(cc1OC)N(C)[C@H]1[C@@](O)(C(=O)OC)[C@H](OC(C)=O)[C@]4(CC)C=CCN5CC[C@]31[C@@H]54)C2 [Vinorelbine Tartrate]
[1]
  normalised area under dose-response curve: 0.546
[2]
  normalised area under dose-response curve: 0.338

## Cc1ccc(NC(=O)c2ccc(CN3CCN(C)CC3)cc2)cc1Nc1nc(-c2cccnc2)cs1 [Masitinib (AB1010)]
[1]
  normalised area under dose-response curve: 0.959
[2]
  normalised area under dose-response curve: 0.83
